According to PubChem BioAssay AID1963840 (Molecular Pharmacology Branch, DTP, NCI, 2024):
Several values for one entry are separate records, joined by “and”; a condition that tells them apart may be missing. Equal entries are not always repeated.

System: 695427-040-R-J1-PDC complex spheroid viability
Assay: Anticancer human tumor 695427-040-R-J1-PDC patient-derived colon adenocarcinoma cell line growth inhibition [POLQ]
Conditions: for viability, T/C: stronger effect = lower value
Method: Multicellular complex tumor spheroid response to Polymerase (POL) inhibitors (novobiocin, ART-558, RP6685) in combination with a variety of drugs and investigational agents in selected tumor cell lines
The POL inhibitors (novobiocin, ART-558, and RP6685) were evaluated both individually and in combination with standard of care and investigational anticancer small molecules within a complex spheroid model of solid tumors. . Complex spheroids include a stromal component modeled by human endothelial cells (HUVEC) and fibroblasts modeled by human mesenchymal stem cells (MSCs). The concentration ranges selected for each drug and investigational agent were based upon clinically achievable concentrations if the clinical Cmax of the agent was known.
Compounds. The drugs and investigational agents: novobiocin (NSC847541), ART-558 (NSC835418), RP-6685 (NSC848927), peposertib (NSC802822), ceralasertib (NSC780249), elimusertib (NSC800525), camonsertib (NSC841442), AZD-1390 (NSC803789), olaparib (NSC753686), talazoparib (NSC767125), rucaparib (NSC756644), sotorasib (NSC818433), MRTX-1133 (NSC836407), SN-38 (NSC673596), topotecan (NSC609699), epotoside (NSC141540), doxorubicin (NSC123127), gemcitabine (NSC613327), 5-fluorouracil (NSC19893), paclitaxel (NSC125973), vemurafenib (NSC761431), MSA-2 (NSC828583), SN-011 (NSC837082), adavosertib (NSC754352), prexasertib (NSC758257), carboplatin (NSC241240) and oxaliplatin (NSC266046), were obtained from the National Cancer Institute (NCI) Developmental Therapeutics Program Chemical Repository (21). The FDA-approved anticancer drug set is available from the Developmental Therapeutics Program at https://dtp.cancer.gov/organization/dscb/obtaining/. […] The stock solutions were prepared in dimethyl sulfoxide (DMSO, Sigma-Aldrich, St. Louis, MO, cat. D2650), except for the platinum compounds which were prepared in saline (Quality Biological, Gaithersburg, MD, cat. 114-055-101), at 800-fold the tested concentration and stored at -70 degrees C prior to their use. All drugs and investigational agents were tested over a range starting from a high concentration at or near the clinical Cmax and decreasing in half-log increments. If the clinical Cmax for an agent had not been determined, the highest concentration tested was 10 microM, except for SN-38, which was tested at a high concentration of 1 microM.
Cell Culture. All cells were maintained in an incubator at 37 degrees C and 5% CO2 with 95% humidity. The PDC lines were cultured according to standard operating procedures established by the NCI PDMR (https://pdmr.cancer.gov). Table 3 of the manuscript, lists the cell lines along with the number of the three cell types plated to form the mct-spheroids and media for tumor cell growth. After thawing, all PDC lines, except 997537-175-T-J1-PDC and 415267-285-R-J2-PDC, were cultured in Matrigel-coated flasks prepared with a working solution of 1X Ham's F-12 nutrient mix, without supplementation (Thermo Fisher Scientific, cat. 11765054), 100 U/mL penicillin-streptomycin (Thermo Fisher Scientific, cat. 15140122), and 2.5% Matrigel (Corning Inc., Corning, NY, cat. 354248) for the first three passages. The two PDC lines 997537-175-T-J1-PDC and 415267-285-R-J2-PDC were cultured on uncoated flasks. The 857933-349-R-J2-PDC line was cultured in 6C/Colon 1B media containing advanced DMEM/F-12 (Thermo Fisher Scientific, cat. 12634028), 10 mM HEPES (Thermo Fisher Scientific, cat. 15630080), 1X GlutaMAX supplement (Thermo Fisher Scientific, cat. 35050061), 0.1 mg/mL primocin (InvivoGen, San Diego, CA, cat. ant-pm-2), 10% defined fetal bovine serum, heat inactivated (HyClone Laboratories Inc., Logan, UT, cat. SH30070.03HI), 50% L-WRN conditioned media (ATCC, cat. CRL-3276), 1.25 mM N-Acetyl-L-cysteine (Sigma-Aldrich, cat. A9165), 10 mM nicotinamide (Sigma-Aldrich, cat. N0636), 1X B-27 supplement (Thermo Fisher Scientific, cat. 17504044), 1X N-2 supplement (Thermo Fisher Scientific, cat. […]

[1] = curve of first compound, second compound 0.0316 µM
[2] = curve of first compound, second compound 0.1 µM
[3] = curve of first compound, second compound 0.316 µM
[4] = curve of first compound, second compound 1 µM
[5] = curve of first compound, second compound 3.16 µM
[6] = curve of first compound, second compound 10 µM
[7] = second compound 0.0316 µM, first compound 0.0316 µM
[8] = second compound 0.0316 µM, first compound 0.1 µM
[9] = second compound 0.0316 µM, first compound 0.316 µM
[10] = second compound 0.0316 µM, first compound 1 µM
[11] = second compound 0.0316 µM, first compound 3.16 µM
[12] = second compound 0.0316 µM, first compound 10 µM
[13] = second compound 0.1 µM, first compound 0.0316 µM
[14] = second compound 0.1 µM, first compound 0.1 µM
[15] = second compound 0.1 µM, first compound 0.316 µM
[16] = second compound 0.1 µM, first compound 1 µM
[17] = second compound 0.1 µM, first compound 3.16 µM
[18] = second compound 0.1 µM, first compound 10 µM
[19] = second compound 0.316 µM, first compound 0.0316 µM
[20] = second compound 0.316 µM, first compound 0.1 µM
[21] = second compound 0.316 µM, first compound 0.316 µM
[22] = second compound 0.316 µM, first compound 1 µM
[23] = second compound 0.316 µM, first compound 3.16 µM
[24] = second compound 0.316 µM, first compound 10 µM
[25] = second compound 1 µM, first compound 0.0316 µM
[26] = second compound 1 µM, first compound 0.1 µM
[27] = second compound 1 µM, first compound 0.316 µM
[28] = second compound 1 µM, first compound 1 µM
[29] = second compound 1 µM, first compound 3.16 µM
[30] = second compound 1 µM, first compound 10 µM
[31] = second compound 3.16 µM, first compound 0.0316 µM
[32] = second compound 3.16 µM, first compound 0.1 µM
[33] = second compound 3.16 µM, first compound 0.316 µM
[34] = second compound 3.16 µM, first compound 1 µM
[35] = second compound 3.16 µM, first compound 3.16 µM
[36] = second compound 3.16 µM, first compound 10 µM
[37] = second compound 10 µM, first compound 0.0316 µM
[38] = second compound 10 µM, first compound 0.1 µM
[39] = second compound 10 µM, first compound 0.316 µM
[40] = second compound 10 µM, first compound 1 µM
[41] = second compound 10 µM, first compound 3.16 µM
[42] = second compound 10 µM, first compound 10 µM
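Also: spheroids exposed to compounds for seven days.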
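For viability, T/C in this document: 100% = DMSO vehicle control viability.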

## COc1cc(C2c3cc4c(cc3C(OC3OC5COC(C)OC5C(O)C3O)C3COC(=O)C23)OCO4)cc(OC)c1O (stereo not given) + Nc1ccc(C#CCN(C(=O)Cc2ncc(C(F)(F)F)cc2C(F)(F)F)c2ccc(F)cc2)nn1
[1]
  IC50: > 10 µM
[2]
  IC50: > 10 µM
[3]
  IC50: > 10 µM
[4]
  IC50: > 10 µM
[5]
  IC50: > 10 µM
[6]
  IC50: > 10 µM
[7]
  viability, T/C: 104%
[8]
  viability, T/C: 97.9%
[9]
  viability, T/C: 98%
[10]
  viability, T/C: 97.8%
[11]
  viability, T/C: 95.2%
[12]
  viability, T/C: 87.4%
[13]
  viability, T/C: 99%
[14]
  viability, T/C: 97.2%
[15]
  viability, T/C: 100%
[16]
  viability, T/C: 104%
[17]
  viability, T/C: 102%
[18]
  viability, T/C: 89.4%
[19]
  viability, T/C: 98.4%
[20]
  viability, T/C: 90.5%
[21]
  viability, T/C: 98.3%
[22]
  viability, T/C: 97.6%
[23]
  viability, T/C: 113%
[24]
  viability, T/C: 91.3%
[25]
  viability, T/C: 101%
[26]
  viability, T/C: 97.5%
[27]
  viability, T/C: 105%
[28]
  viability, T/C: 97.5%
[29]
  viability, T/C: 106%
[30]
  viability, T/C: 73.5%
[31]
  viability, T/C: 96.2%
[32]
  viability, T/C: 94.3%
[33]
  viability, T/C: 98.5%
[34]
  viability, T/C: 99.2%
[35]
  viability, T/C: 101%
[36]
  viability, T/C: 81.5%
[37]
  viability, T/C: 92.7%
[38]
  viability, T/C: 89%
[39]
  viability, T/C: 88.8%
[40]
  viability, T/C: 87.8%
[41]
  viability, T/C: 85.9%
[42]
  viability, T/C: 84.9%

## C#Cc1c(F)ccc2cc(O)cc(-c3ncc4c(N5CC6CCC(C5)N6)nc(OCC56CCCN5CC(F)C6)nc4c3F)c12 (stereo not given) + Cc1cccc(N(C)C(=O)C2C(O)CCN2c2nc(C)cc(C(F)(F)F)c2C#N)c1
[1]
  IC50: > 10 µM
[2]
  IC50: > 10 µM
[3]
  IC50: > 10 µM
[4]
  IC50: > 10 µM
[5]
  IC50: > 10 µM
[6]
  IC50: > 10 µM
[7]
  viability, T/C: 106%
[8]
  viability, T/C: 99.3%
[9]
  viability, T/C: 98%
[10]
  viability, T/C: 104%
[11]
  viability, T/C: 88.3%
[12]
  viability, T/C: 86.9%
[13]
  viability, T/C: 102%
[14]
  viability, T/C: 100%
[15]
  viability, T/C: 90.8%
[16]
  viability, T/C: 96%
[17]
  viability, T/C: 92.1%
[18]
  viability, T/C: 78.8%
[19]
  viability, T/C: 98.3%
[20]
  viability, T/C: 99%
[21]
  viability, T/C: 97.8%
[22]
  viability, T/C: 104%
[23]
  viability, T/C: 90.8%
[24]
  viability, T/C: 80.6%
[25]
  viability, T/C: 98%
[26]
  viability, T/C: 92.4%
[27]
  viability, T/C: 94.3%
[28]
  viability, T/C: 92.1%
[29]
  viability, T/C: 89.2%
[30]
  viability, T/C: 83.2%
[31]
  viability, T/C: 88.5%
[32]
  viability, T/C: 94.3%
[33]
  viability, T/C: 97%
[34]
  viability, T/C: 90.4%
[35]
  viability, T/C: 91%
[36]
  viability, T/C: 76.1%
[37]
  viability, T/C: 92.8%
[38]
  viability, T/C: 84.7%
[39]
  viability, T/C: 85.4%
[40]
  viability, T/C: 84.7%
[41]
  viability, T/C: 73.2%
[42]
  viability, T/C: 61.5%

## CC1COCCN1c1cc(-c2ccnn2C)c2ccnc(-c3ccn[nH]3)c2n1 (stereo not given)
Compound 0.0316 µM
  viability, T/C: 99% and 89.7% and 98.1%
Compound 0.1 µM
  viability, T/C: 76.9% and 79.1% and 84.7%
Compound 0.316 µM
  viability, T/C: 64.2% and 62% and 69.8%
Compound 1 µM
  viability, T/C: 53.6% and 51.7% and 67.6%
Compound 3.16 µM
  viability, T/C: 48.9% and 46% and 62.1%
Compound 10 µM
  viability, T/C: 50.2% and 47.4% and 57.1%
Curve of compound
  IC50: 4.35 µM and 1.4 µM and > 10 µM

## C#Cc1c(F)ccc2cc(O)cc(-c3ncc4c(N5CC6CCC(C5)N6)nc(OCC56CCCN5CC(F)C6)nc4c3F)c12 (stereo not given)
Compound 0.0316 µM
  viability, T/C: 102% (2×) and 106%
Compound 0.1 µM
  viability, T/C: 93.8% and 98.8% and 105%
Compound 0.316 µM
  viability, T/C: 95% and 98.2% and 97.1%
Compound 1 µM
  viability, T/C: 98.6% and 102% and 107%
Compound 3.16 µM
  viability, T/C: 90.7% and 98.5% and 95%
Compound 10 µM
  viability, T/C: 76.6% and 91% and 87.1%
Curve of compound
  IC50: > 10 µM

## CCc1cc2c(N3CCc4c(cc(Cn5ccnc5)cc4-c4cn(C)nc4C(F)(F)F)C3=O)cc(C)nc2c(OC)n1
Compound 0.0316 µM
  viability, T/C: 107% and 108% and 105%
Compound 0.1 µM
  viability, T/C: 105% and 101% and 108%
Compound 0.316 µM
  viability, T/C: 110% and 98.6% and 100%
Compound 1 µM
  viability, T/C: 108% and 101% and 96.8%
Compound 3.16 µM
  viability, T/C: 104% and 112% and 110%
Compound 10 µM
  viability, T/C: 96.4% and 97.9% and 106%
Curve of compound
  IC50: > 10 µM
